Key:
[1] = tested on: Staphylococcus aureus; assay: Antimicrobial study against Staphylococcus aureus (gram-positive bacteria); type: cell-based; details: methylolated C8/10 10,800 ppm, methylolated lauric 11,400 ppm, DMDMH 3,000 ppm, others 14,700 ppm
[2] = tested on: Aspergillus niger; assay: Antimicrobial study against Aspergillus niger (mold); type: cell-based; details: methylolated C8/10 10,800 ppm, methylolated lauric 11,400 ppm, DMDMH 3,000 ppm, others 14,700 ppm
[3] = Emulsion stability tests; type: physicochemical
In short: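 Emulsions of test ester (2%), myristyl propionate (7%) and water (91%) were homogenized for one minute. Stability was judged by periodic visual examination in capped jars over a 55 day period, with precursor esters (Ia) tested alongside.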

[4] = tested on: Pseudomonas aeruginosa; assay: Antimicrobial study against Pseudomonas aeruginosa (gram-negative bacteria); type: cell-based; details: methylolated C8/10 10,800 ppm, methylolated lauric 11,400 ppm, DMDMH 3,000 ppm, others 14,700 ppm
[5] = tested on: Staphylococcus species a; assay: Preservative challenge test against Staphylococcus species a; type: cell-based; details: end of 14 day period
Protocol: Microbiological challenge tests were also conducted with the lauric and oleic esters (I), representing molecules having C12 and C18 aliphatic fatty acid chain length moieties, respectively.
These preservative challenge tests were used to determine the biocidal performance of these two esters (I) in aqueous solution and dispersion formulations inoculated with a given one of two test organisms, previously isolated from a contaminated calcium carbonate (CaCO3) dispersion, i.e. gram-positive bacteria, designated Staphylococcus species a and Staphylococcus species b, as compared to three known biocides or preservatives, designated as DANTOGARD (trademark), Tektamer 38 (1,2-dibromo-2,4-dicyanobutane) and Nuodex PMA-18.
The solution formulation was represented by the inclusion of the test sample as preservative system in deionized water, and the dispersion formulation was represented by the inclusion of the test sample as preservative system in a CaCO3 aqueous dispersion (identified as Hydrocarb 60), the latter typifying a dispersed pigment medium, e.g. as used in a paint or other industrial dispersion or slurry. The antimicrobial activity of the test samples was evaluated at individually selective concentrations.
All these liquid samples were stored at room temperature until the start of the tests. The test organisms were maintained or nutrient agar at 4° C. and subcultured in nutrient broth (Difco), and a 24 hour culture incubated at 35° C. was used for the testing over a challenge test time period of 14 days.
The test formulations were prepared per a standardized procedure, by placing 20 ml aliquots of the stored sample into sterile test tubes, and then adding 0.1 ml of a standardized 10^6 suspension of a 24 hour culture in nutrient broth. Plate counts were taken immediately to determine the initial level of the microbial population, and the containers were incubated at 20°-25° C. Plate counts were retaken at 1, 3, 7 and 14 days, with the final reductions being calculated from the 14 days results.

[6] = Solubilities of esters in typical solvents / appearance of samples in water; type: physicochemical; details: 25° C.
[7] = Dispersion stability tests; type: physicochemical; details: for stability of dispersions in water: 0.5%, and even 5% active levels
Protocol: The dispersion stability tests were performed on the esters (I) to determine the extent each was able to disperse itself in an aqueous medium.
The dispersions were prepared by homogenizing a mixture of the test ester and water, after which repeated examination of the sample was effected for a period of 55 days. This test method is fully indicative of the dispersibility of these esters (I).
The dispersion tests were performed with the esters at 0.5% and 5.0% active levels in water, prepared by combining the test ester with distilled water, and homogenizing the mixture for one to three minutes, via a Kika-Werk Ultra-Turrax S D-45 homogenizer. The dispersions were poured into an eight ounce flint jar, capped, and periodically examined over a 55 day period.

| Solubility in isopropyl alcohol [6] | Solubility in mineral oil [6] | SMILES | Colony Count ([1]; Day 0) | Colony Count ([1]; Day 1) | Colony Count ([1]; Day 2) | Colony Count ([1]; Day 3) | Colony Count ([1]; Day 7) | Colony Count ([2]; Day 0) | Colony Count ([2]; Day 1) | Colony Count ([2]; Day 2) | Colony Count ([2]; Day 3) | Colony Count ([2]; Day 7) | emulsion quality, decreasing order of rank [3] | Colony Count ([4]; Day 0) | Colony Count ([4]; Day 1) | Colony Count ([4]; Day 2) | Colony Count ([4]; Day 3) | Colony Count ([4]; Day 7) | effectiveness as preservative ([5]; water) | dispersion quality, decreasing order of rank [7] | further results |
| --- | --- | --- | --- | --- | --- | --- | --- | --- | --- | --- | --- | --- | --- | --- | --- | --- | --- | --- | --- | --- | --- |
| S (>10 g/100 g Solvent) | S (>10 g/100 g Solvent) | CCCCCCCCCCCC(=O)OCCN1C(=O)N(CO)C(=O)C1(C)C [Methylolated Lauric Ester, 2-(3-hydroxymethyl-5,5-dimethyl-1,3-diazacyclopentane-2,4-dion-1-yl)-ethylester of lauric acid] | TNC | 4,000 × 1,000 | < 0.01 × 1,000 | < 0.01 × 1,000 | < 0.01 × 1,000 | 400 × 1,000 | 2 × 1,000 | < 0.01 × 1,000 | < 0.01 × 1,000 | < 0.01 × 1,000 | cocoate, laurate>oleate,isostearate>stearate>C8/10 ester>acetate | TNC | < 0.01 × 1,000 | < 0.01 × 1,000 | < 0.01 × 1,000 | < 0.01 × 1,000 | effective as preservatives in water | isostearate>oleate>cocoate>laurate>C8/10ester>>stearate>acetate | ability to stabilize emulsions [3]: the best emulsifiers tested; duration of stabilized emulsions [3]: more than 22 days; stability of dispersions in water [7]: stable for weeks |
| S (>10 g/100 g Solvent) | S (>10 g/100 g Solvent) | CCCCCCCC/C=C\CCCCCCCC(=O)OCCN1C(=O)N(CO)C(=O)C1(C)C [Methylolated Oleic Ester, 2-(3-hydroxymethyl-5,5-dimethyl-1,3-diazacyclopentane-2,4-dion-1-yl)-ethylester of oleic acid] | TNC | 4,200 × 1,000 | < 0.01 × 1,000 | < 0.01 × 1,000 | < 0.01 × 1,000 | 2,000 × 1,000 | 0.5 × 1,000 | < 0.01 × 1,000 | < 0.01 × 1,000 | < 0.01 × 1,000 | cocoate, laurate>oleate,isostearate>stearate>C8/10 ester>acetate | TNC | < 0.01 × 1,000 | < 0.01 × 1,000 | < 0.01 × 1,000 | < 0.01 × 1,000 | effective as preservatives in water | isostearate>oleate>cocoate>laurate>C8/10ester>>stearate>acetate | effectiveness as preservative ([5]; calcium carbonate aqueous dispersions): effective as a preservative in calcium carbonate aqueous dispersions; stability of dispersions in water [7]: stable for weeks |
